Assay results from ChEMBL document CHEMBL5252512, “Recent Progress in the Development of HIV-1 Protease Inhibitors for the Treatment of HIV/AIDS” (J Med Chem, 2016).

Legend:
[1] = tested on: Human immunodeficiency virus 1; assay: Antiviral activity against multidrug-resistant HIV1-TM infected in phytohemagglutinin-activated human PBMC cells assessed as inhibition of virus-induced cytopathic effect measured after 7 days by MTT assay; format: functional, organism-based; conditions: Human immunodeficiency virus 1, TM, 168 h
[2] = tested on: Human immunodeficiency virus 1; assay: Antiviral activity against multidrug-resistant HIV1-G infected in phytohemagglutinin-activated human PBMC cells assessed as inhibition of virus-induced cytopathic effect measured after 7 days by MTT assay; format: functional, organism-based; conditions: Human immunodeficiency virus 1, G, 168 h
[3] = tested on: Human immunodeficiency virus 1; assay: Antiviral activity against multidrug-resistant HIV1-C infected in phytohemagglutinin-activated human PBMC cells assessed as inhibition of virus-induced cytopathic effect measured after 7 days by MTT assay; format: functional, organism-based; conditions: Human immunodeficiency virus 1, C, 168 h
[4] = tested on: Human immunodeficiency virus 1; assay: Antiviral activity against multidrug-resistant HIV1-B infected in phytohemagglutinin-activated human PBMC cells assessed as inhibition of virus-induced cytopathic effect measured after 7 days by MTT assay; format: functional, organism-based; conditions: Human immunodeficiency virus 1, B, 168 h
[5] = tested on: Human immunodeficiency virus 1; assay: Antiviral activity against multidrug-resistant HIV1-JSL infected in phytohemagglutinin-activated human PBMC cells assessed as inhibition of virus-induced cytopathic effect measured after 7 days by MTT assay; format: functional, organism-based; conditions: Human immunodeficiency virus 1, JSL, 168 h
[6] = tested on: Human immunodeficiency virus 1; assay: Antiviral activity against wild type HIV1 ERS104pre infected in human PBMC cells assessed as inhibition of virus-induced cytopathic effect measured after 7 days by MTT assay; format: functional, organism-based; conditions: Human immunodeficiency virus 1, ERS104pre, 168 h
[7] = tested on: Human immunodeficiency virus 1; assay: Antiviral activity against multidrug-resistant HIV1-MM infected in phytohemagglutinin-activated human PBMC cells assessed as inhibition of virus-induced cytopathic effect measured after 7 days by MTT assay; format: functional, organism-based; conditions: Human immunodeficiency virus 1, MM, 168 h
[8] = tested on: Human immunodeficiency virus 1; assay: Antiviral activity against darunavir-resistant HIV1 10P infected in phytohemagglutinin-activated human PBMC cells assessed as inhibition of virus-induced cytopathic effect measured after 7 days by MTT assay; format: functional, organism-based; conditions: Human immunodeficiency virus 1, 10P, 168 h
[9] = tested on: Human immunodeficiency virus 1; assay: Antiviral activity against darunavir-resistant HIV1 20P infected in phytohemagglutinin-activated human PBMC cells assessed as inhibition of virus-induced cytopathic effect measured after 7 days by MTT assay; format: functional, organism-based; conditions: Human immunodeficiency virus 1, 20P, 168 h
[10] = target: T1, Human immunodeficiency virus type 1 protease (Human immunodeficiency virus 1, UniProt Q72874); assay: Binding affinity to HIV1 protease assessed as inhibition constant
[11] = target: T1, Human immunodeficiency virus type 1 protease; assay: Inhibition of recombinant HIV1 Protease
[12] = tested on: Human immunodeficiency virus 1; assay: Ratio of EC50 for antiviral activity against HIV1-TM to EC50 for antiviral activity against wild type HIV1 ERS104pre; format: functional
[13] = tested on: Human immunodeficiency virus 1; assay: Ratio of EC50 for antiviral activity against HIV1-C to EC50 for antiviral activity against wild type HIV1 ERS104pre; format: functional
[14] = tested on: Human immunodeficiency virus 1; assay: Ratio of EC50 for antiviral activity against HIV1-MM to EC50 for antiviral activity against wild type HIV1 ERS104pre; format: functional
[15] = tested on: Human immunodeficiency virus 1; assay: Ratio of EC50 for antiviral activity against HIV1-JSL to EC50 for antiviral activity against wild type HIV1 ERS104pre; format: functional
[16] = tested on: Human immunodeficiency virus 1; assay: Ratio of EC50 for antiviral activity against HIV1-G to EC50 for antiviral activity against wild type HIV1 ERS104pre; format: functional
[17] = tested on: Human immunodeficiency virus 1; assay: Ratio of EC50 for antiviral activity against HIV1-B to EC50 for antiviral activity against wild type HIV1 ERS104pre; format: functional
[18] = target: T1, Human immunodeficiency virus type 1 protease; assay: Binding affinity to wild-type HIV1 protease expressed in Escherichia coli by fluorometric assay

Compound `CC(C)(C)NC(=O)[C@@H]1C[C@@H]2CCCC[C@@H]2CN1C[C@@H](O)[C@H](Cc1ccccc1)NC(=O)[C@H](CC(N)=O)NC(=O)c1ccc2ccccc2n1` has an EC50 [1] of 100 nM, an EC50 [2] of 33 nM and an EC50 [3] of 35 nM. For the same compound, the EC50 [4] was 270 nM, the EC50 [5] was 290 nM and the EC50 [6] was 4 nM. The EC50 [7] was 110 nM.

For `CC(C)CN(C[C@@H](O)[C@H](Cc1ccccc1)NC(=O)O[C@H]1CCOC1)S(=O)(=O)c1ccc(N)cc1`, the EC50 [1] was 300 nM, the EC50 [8] was > 1000 nM and the EC50 [2] was 310 nM. For the same compound, the EC50 [3] was 210 nM, the EC50 [4] was 360 nM and the EC50 [5] was 430 nM. The EC50 [6] was 29 nM, the EC50 [7] was 270 nM and the EC50 [9] was > 1000 nM.

Work on `COc1ccc(S(=O)(=O)N(CC(C)C)C[C@@H](O)[C@H](Cc2ccccc2)n2cc(CNC(=O)c3ccc(CNC(=O)OC(C)(C)C)cc3)nn2)cc1` yielded a Ki [10] of 4 nM and an IC50 [11] of 13 nM.

With `CC(C)CN(C[C@@H](O)[C@H](Cc1ccccc1)NC(=O)O[C@H]1CO[C@H]2OCC[C@H]21)S(=O)(=O)c1ccc2c(c1)OCO2` the EC50 [1] was 3.2 nM, the “Ratio EC50” value [12] was 6 and the “Ratio EC50” value [13] was 5. The EC50 [2] was 3.4 nM, the “Ratio EC50” value [14] was 8 and the EC50 [3] was 2.7 nM. For the same compound, the EC50 [4] was 3.9 nM, the “Ratio EC50” value [15] was 12 and the EC50 [5] was 6 nM. The EC50 [6] was 0.5 nM, the EC50 [7] was 3.8 nM and the “Ratio EC50” value [16] was 7. For the same compound, the “Ratio EC50” value [17] was 8.

`C[C@H](Cc1cc2c(cc1O)OCO2)[C@H](C)Cc1cc2c(cc1O)OCO2` showed an IC50 [11] of 5600 nM.

`COc1ccc(S(=O)(=O)N(CC(C)C)C[C@@H](O)[C@H](Cc2ccccc2)n2cc(COC(=O)N[C@H]3c4ccccc4C[C@H]3O)nn2)cc1` gave a Ki [10] of 1.7 nM and an IC50 [11] of 6 nM.

In the case of `CC(C)C[C@H](NC(=O)[C@@H](NC(=O)CCCCCCCCCCCCCCC(=O)N[C@@H](CC(N)=O)C(=O)N[C@@H](Cc1ccccc1)C(=O)O)[C@@H](C)O)C(=O)NCCc1ccc(Oc2ccc(O)cc2)cc1`, the IC50 [11] is reported as 96 nM.

`O=S1(=O)N(Cc2ccccc2-c2cc3ccccc3o2)C[C@H](O)[C@@H](O)CN1Cc1ccccc1-c1cc2ccccc2o1` showed a Ki [18] of 530 nM.

Work on `NC(=O)CN(Cc1ccc(N)cc1)C(=O)CN(CC1CCCCC1)C(=O)CN(Cc1ccc(N)cc1)C(=O)CCCCCCCCCCCCCCC(=O)N(CC(=O)N(CC(=O)O)Cc1ccccc1)Cc1ccc(N)cc1` yielded a Ki [10] of 135 nM.

With `O=C(Cc1cccc2ccccc12)Nc1ccccc1CN1C[C@H](O)[C@@H](O)CN(Cc2ccccc2Br)S1(=O)=O` the Ki [18] was 280 nM.

`CC(C)C[C@H](NC(=O)[C@@H](NC(=O)CCCCCCCCCCCCCCC(=O)N[C@@H](CC(N)=O)C(=O)N[C@@H](Cc1ccccc1)C(=O)O)[C@@H](C)O)C(=O)NCCc1cccc(O)c1` gave an IC50 [11] of 1130 nM.

Compound `O=C(Cc1cccc2ccccc12)O[C@H]1CNC[C@@H]1OC(=O)Cc1cccc2ccccc12` has a Ki [10] of 20000 nM.

In the case of `COC(=O)[C@@H](NC(=O)[C@H](CC(C)C)NC(=O)[C@@H](NC(=O)CCCOc1ccc2ccc(OCCCC(=O)N[C@H](CCCCNC(=O)OCc3ccccc3)C(=O)NNC(=O)c3cc(NC(C)=O)ccc3OC)cc2c1)C(C)C)C(C)C`, the Ki [10] is reported as 60 nM.

For `O=C(Cc1cccc2ccccc12)Nc1ccccc1CN1C[C@H](O)[C@@H](O)CN(Cc2ccccc2)S1(=O)=O`, the Ki [18] was 140 nM.
